This is an account of results in ChEMBL document CHEMBL1944545, “Discovery of novel selective inhibitors for EGFR-T790M/L858R” (Bioorg Med Chem Lett, 2012).

The structures appear in SMILES notation.

Assay [1] has as its target Epidermal growth factor receptor (Homo sapiens, UniProt P00533, L858R/T790M). Briefly: Inhibition of EGFR T790M/L858R mutant expressed using baculovirus expression system by ELISA. Background: An ELISA detects its analyte on a solid surface through an enzyme-linked reagent.
For assay [2], the system named is NCI-H1975. Briefly: Antiproliferative activity against human NCI-H1975 cells over-expressing EGFR mutant gene after 72 hrs by SRB assay. It counts as functional, cell-based. To be noted: NCI-H1975, 72 h.
In assay [3] the target is Epidermal growth factor receptor (Homo sapiens, UniProt P00533). In words: Inhibition of wild-type EGFR expressed using baculovirus expression system by ELISA.
Epidermal growth factor receptor (Homo sapiens, UniProt P00533), sequence (P00533 whole entry): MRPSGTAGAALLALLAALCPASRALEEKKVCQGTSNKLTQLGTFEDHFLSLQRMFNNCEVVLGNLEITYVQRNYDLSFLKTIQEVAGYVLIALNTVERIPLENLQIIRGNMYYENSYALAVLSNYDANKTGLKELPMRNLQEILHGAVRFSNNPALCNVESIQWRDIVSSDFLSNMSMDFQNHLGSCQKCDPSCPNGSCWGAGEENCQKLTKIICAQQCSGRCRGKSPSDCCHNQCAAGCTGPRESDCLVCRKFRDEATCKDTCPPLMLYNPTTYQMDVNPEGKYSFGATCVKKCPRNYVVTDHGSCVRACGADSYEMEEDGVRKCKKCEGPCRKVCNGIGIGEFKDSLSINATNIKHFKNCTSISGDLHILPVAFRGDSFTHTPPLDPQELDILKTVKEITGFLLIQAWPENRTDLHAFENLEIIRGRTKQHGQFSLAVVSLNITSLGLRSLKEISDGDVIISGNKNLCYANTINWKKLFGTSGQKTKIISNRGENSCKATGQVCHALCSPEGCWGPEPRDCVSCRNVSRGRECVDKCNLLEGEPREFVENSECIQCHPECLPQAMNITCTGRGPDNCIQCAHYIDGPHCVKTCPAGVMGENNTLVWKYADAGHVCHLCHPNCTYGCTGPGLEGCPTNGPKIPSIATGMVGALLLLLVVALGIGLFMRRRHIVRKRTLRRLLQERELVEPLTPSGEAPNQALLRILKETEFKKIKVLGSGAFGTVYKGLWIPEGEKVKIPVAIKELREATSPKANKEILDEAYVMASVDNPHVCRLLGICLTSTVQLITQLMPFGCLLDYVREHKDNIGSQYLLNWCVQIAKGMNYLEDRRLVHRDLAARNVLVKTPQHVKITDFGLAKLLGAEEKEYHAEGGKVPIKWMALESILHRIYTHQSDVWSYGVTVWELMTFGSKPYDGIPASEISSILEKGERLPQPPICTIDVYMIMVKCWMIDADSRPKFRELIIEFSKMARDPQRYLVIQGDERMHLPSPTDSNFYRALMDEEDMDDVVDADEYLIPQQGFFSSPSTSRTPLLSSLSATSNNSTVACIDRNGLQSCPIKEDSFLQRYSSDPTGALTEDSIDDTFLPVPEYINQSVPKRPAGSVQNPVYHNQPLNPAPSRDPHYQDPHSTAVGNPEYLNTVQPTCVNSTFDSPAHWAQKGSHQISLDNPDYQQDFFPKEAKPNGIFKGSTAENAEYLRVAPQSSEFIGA
Assay [4] concerns A549. Briefly: Antiproliferative activity against human A549 cells over-expressing EGFR gene after 72 hrs by SRB assay. The assay is classed as functional, cell-based. The following applies: A549, 72 h. In general terms: The SRB assay estimates cell density from bound dye.
In assay [5] the test system is A-431. In words: Antiproliferative activity against human A431 cells over-expressing EGFR gene after 72 hrs by SRB assay. To be noted: A-431, 72 h. The assay is classed as functional, cell-based.

Epidermal growth factor receptor (Homo sapiens, UniProt P00533, L858R/T790M), sequence (P00533 25-1210 T790M/L858R limits assumed): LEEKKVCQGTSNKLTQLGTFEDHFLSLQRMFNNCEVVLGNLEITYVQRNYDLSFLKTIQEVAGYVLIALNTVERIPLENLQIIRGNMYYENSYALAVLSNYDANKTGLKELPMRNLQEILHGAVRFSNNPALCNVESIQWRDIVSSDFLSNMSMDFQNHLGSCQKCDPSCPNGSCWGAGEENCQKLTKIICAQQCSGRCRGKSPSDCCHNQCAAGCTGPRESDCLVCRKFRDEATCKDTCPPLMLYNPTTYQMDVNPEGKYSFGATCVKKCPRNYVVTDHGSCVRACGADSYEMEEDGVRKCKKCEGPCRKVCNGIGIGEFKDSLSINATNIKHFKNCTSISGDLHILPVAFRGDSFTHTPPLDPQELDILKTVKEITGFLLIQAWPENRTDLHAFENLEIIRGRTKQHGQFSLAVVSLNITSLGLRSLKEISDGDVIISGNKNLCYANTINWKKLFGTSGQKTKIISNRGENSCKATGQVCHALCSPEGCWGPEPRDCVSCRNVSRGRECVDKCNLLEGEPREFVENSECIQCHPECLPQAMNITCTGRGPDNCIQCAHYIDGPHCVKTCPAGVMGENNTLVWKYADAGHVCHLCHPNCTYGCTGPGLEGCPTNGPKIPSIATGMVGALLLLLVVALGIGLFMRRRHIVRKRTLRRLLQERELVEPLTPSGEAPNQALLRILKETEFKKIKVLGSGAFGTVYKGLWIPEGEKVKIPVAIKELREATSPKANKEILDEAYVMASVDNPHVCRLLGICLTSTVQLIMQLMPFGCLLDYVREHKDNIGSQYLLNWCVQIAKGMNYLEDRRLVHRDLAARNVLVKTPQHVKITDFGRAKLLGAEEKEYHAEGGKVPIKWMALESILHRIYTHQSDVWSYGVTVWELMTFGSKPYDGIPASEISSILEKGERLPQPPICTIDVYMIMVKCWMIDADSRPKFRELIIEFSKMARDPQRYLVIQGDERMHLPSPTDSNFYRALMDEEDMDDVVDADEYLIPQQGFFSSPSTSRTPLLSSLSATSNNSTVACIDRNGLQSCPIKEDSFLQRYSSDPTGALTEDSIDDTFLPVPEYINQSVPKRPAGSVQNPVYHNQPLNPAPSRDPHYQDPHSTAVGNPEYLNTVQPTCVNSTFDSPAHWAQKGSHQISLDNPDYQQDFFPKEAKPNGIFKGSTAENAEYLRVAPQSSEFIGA

The term IC50 denotes the concentration that inhibits the measured activity by half. On to `COc1ccc(Nc2nc(Cl)nc(NCc3ccco3)n2)cc1`, for which the IC50 in assay [1] was 20.9 µM; in assay [2], above 100 µM; in assay [3] it was above 100 µM; in assay [4] it was above 100 µM; in assay [5], above 100 µM.

`Cc1ccc(-n2c(SCC(=O)Nc3ccccc3Cl)nc3sc(C)c(C)c3c2=O)cc1`: the IC50 in assay [1] is above 100 µM; in assay [2], 53.7 µM; in assay [3], 81.6 µM; in assay [4], 92.8 µM; in assay [5], above 100 µM.

For `Cn1cc(NC(=O)/C=N/O)c(=O)n1-c1ccccc1`, the IC50 in assay [1] was 8.9 µM; in assay [2], above 100 µM; in assay [3], above 100 µM; in assay [4] it was above 100 µM; in assay [5], above 100 µM.

`COc1cccc2c1C(=O)c1c(O)ccc(O)c1C2=O`: the IC50 in assay [1] is 17.6 µM; in assay [2], 89.4 µM; in assay [3] it was 4.3 µM; in assay [4] it was above 100 µM; in assay [5] it was 71.5 µM.

For `Cn1c2ccccc2n2c(=S)[nH]nc12`, the IC50 in assay [1] was 22 µM; in assay [2] it was above 100 µM; in assay [3], above 100 µM; in assay [4] it was above 100 µM; in assay [5], above 100 µM.

For the molecule `CC(=O)Nc1ccc(S(=O)(=O)Nc2nc3ccccc3nc2Nc2ccc(C(=O)O)cc2)cc1`, the IC50 in assay [1] was 23.5 µM; in assay [2], above 100 µM; in assay [3] it was 35.8 µM; in assay [4], above 100 µM; in assay [5], above 100 µM.

Take `Cc1c(Cc2ccccc2)sc(NCC(=O)COc2ccc3ccccc3c2)c1C(N)=O`: the IC50 was 24.7 µM in assay [1]; 51.7 µM in assay [2]; above 100 µM in assay [3]; 61.1 µM in assay [4]; 63.8 µM in assay [5].

Consider `O=C(NNC(=O)c1ncc(Cc2ccsc2)s1)Nc1ccccc1`, for which the IC50 was 40.9 µM in assay [1]; above 100 µM in assay [2]; above 100 µM in assay [3]; above 100 µM in assay [4]; above 100 µM in assay [5].

Take `O=C(Nc1cccc(Br)c1)c1c(O)c2ccccc2[nH]c1=O`: the IC50 in assay [1] is 56.8 µM; in assay [2], above 100 µM; in assay [3], above 100 µM; in assay [4], above 100 µM; in assay [5], above 100 µM.

As to `CCc1ccc(C(=O)NNc2ccc(Cl)cc2C)cc1`, the concentration for half-maximal inhibition (IC50) in assay [1] was 65.6 µM; in assay [2], above 100 µM; in assay [3], above 100 µM; in assay [4], above 100 µM; in assay [5], above 100 µM.

With `COc1ccc2c3oc(=O)cc(O)c3c(=O)n(C)c2c1`, the IC50 in assay [1] is 65.1 µM; in assay [2] it was above 100 µM; in assay [3] it was 76.4 µM; in assay [4] it was 72.6 µM; in assay [5], above 100 µM.

Regarding `C=CCn1c(N)c(C(=O)N/N=C/c2cccs2)sc1=S`, the IC50 is 66 µM in assay [1]; above 100 µM in assay [2]; above 100 µM in assay [3]; above 100 µM in assay [4]; above 100 µM in assay [5].

In the case of `O=c1c2c(-c3ccccc3)c3c(nc2nc2[nH]nc(S)n12)-c1ccccc1CC3`, the IC50 in assay [1] was above 100 µM; in assay [2], above 100 µM; in assay [3], 85.6 µM; in assay [4] it was above 100 µM; in assay [5], above 100 µM.

Take `CCOC(=O)c1ccc(NC(=O)CSc2nnc(CNc3ccc(OC)cc3)n2-c2ccccc2)cc1`: the IC50 in assay [1] is above 100 µM; in assay [2], above 100 µM; in assay [3] it was 92.4 µM; in assay [4], above 100 µM; in assay [5], 56.3 µM.

Turning to `CN(C)c1nc(N/N=C/c2cc(Br)c(O)c(Br)c2O)nc(Nc2ccc(F)cc2)n1`, the 50% inhibitory concentration (IC50) in assay [1] came out at 6.5 µM; in assay [2], 10.5 µM; in assay [3], 25.9 µM; in assay [4], 7.7 µM; in assay [5] it was 8 µM.

Take `O=C(CSc1nc(O)nc(-c2ccc(Cl)cc2)n1)Nc1ccc(Cl)cc1`: the IC50 is 13 µM in assay [1]; above 100 µM in assay [2]; above 100 µM in assay [3]; 42.9 µM in assay [4]; above 100 µM in assay [5].

For the molecule `CNc1nc(N/N=C\c2ccc(OC)cc2)nc(Nc2ccccc2)n1`, the IC50 is 31 µM in assay [1]; above 100 µM in assay [2]; above 100 µM in assay [3]; 76.9 µM in assay [4]; 56 µM in assay [5].

For `COc1nc(NCCN2CCOCC2)nc(Nc2ccc(Cl)cc2)n1`, the IC50 in assay [1] was 1.5 µM; in assay [2], above 100 µM; in assay [3], above 100 µM; in assay [4], above 100 µM; in assay [5], above 100 µM.

As for `CNc1nc(N/N=C/c2ccc(O)cc2)nc(Nc2ccccc2)n1`, the IC50 in assay [1] is 30.7 µM; in assay [2] it was above 100 µM; in assay [3], above 100 µM; in assay [4] it was above 100 µM; in assay [5], 47 µM.

In the case of `COc1cccc(Nc2ccnc(Nc3cccc(OC)c3)n2)c1`, the IC50 in assay [1] stood at 36.1 µM; in assay [2] it was 4.1 µM; in assay [3], 7.7 µM; in assay [4], 3.4 µM; in assay [5], 0.8 µM.

As to `COc1ccccc1Nc1ccnc(Nc2ccccc2OC)n1`, the 50% inhibitory concentration (IC50) in assay [1] was above 100 µM; in assay [2], 38.2 µM; in assay [3] it was 90.4 µM; in assay [4] it was 51.2 µM; in assay [5], 35.1 µM.

On to `C=CC(=O)Nc1ccc2ncnc(Nc3ccc(OCc4cccc(F)c4)c(Cl)c3)c2c1` [ALLITINIB], for which the IC50 in assay [2] came to 0.7 µM; in assay [4], 6.8 µM; in assay [5], 0.2 µM.
